In US20070128217A1 (priority 2003, published 2007):

Legend:
[1] = test system: rabbit serum obtained by immunizing a rabbit with the SARS-CoV strain Frankfurt 1; assay type: binding; design: Binding of a rabbit serum to linear peptides / Binding of a rabbit serum to looped peptides / Rabbit serum linear peptides / Rabbit serum looped peptides / Binding of a rabbit serum to linear peptides of protein N of SARS-CoV Urbani (Rabbit serum linear peptides) / Binding of a rabbit serum to looped/cyclic peptides of protein N of SARS-CoV Urbani (Rabbit serum looped peptides): unit not given here
[2] = test system: antibodies in sera from SARS patients (sera 1a, 1b, 2, 6, 37, 62, London, SARS-yellow, SARS-green); assay type: binding, human; design: Binding of serum 6 to linear peptides of protein X1 of SARS-CoV Urbani / Binding of serum 37 to linear peptides of protein X1 of SARS-CoV Urbani / Binding of serum 6 to looped/cyclic peptide (PEPSCAN-ELISA) / Binding of serum 37 to looped/cyclic peptide (PEPSCAN-ELISA) / Binding of serum 37 to looped/cyclic peptides of protein X1 of SARS-CoV Urbani / Binding of serum 6 to linear peptides of protein X2 / Binding of serum 37 to linear peptides of protein X2 / Binding of serum 37 to looped/cyclic peptides of protein X2 of SARS-CoV Urbani / Binding of serum 6 to linear peptides of protein M of SARS-CoV Urbani / Binding of serum 37 to linear peptides of protein M of SARS-CoV Urbani / Binding of serum 6 to looped/cyclic peptides of protein M of SARS-CoV Urbani / Binding of serum 37 to looped/cyclic peptides of protein M of SARS-CoV Urbani / Binding of serum 6 to linear peptides of protein X3 of SARS-CoV Urbani / Binding of serum 37 to linear peptides of protein X3 of SARS-CoV Urbani / Binding of serum 37 to looped/cyclic peptides of protein X3 of SARS-CoV Urbani / Binding of serum 6 to linear peptides of protein X4 of SARS-CoV Urbani / Binding of serum 37 to linear peptides of protein X4 of SARS-CoV Urbani / Binding of serum 37 to looped/cyclic peptides of protein X4 of SARS-CoV Urbani / Binding of serum 6 to linear peptides of protein X5 of SARS-CoV Urbani / Binding of serum 37 to linear peptides of protein X5 of SARS-CoV Urbani / Binding of serum 37 to looped/cyclic peptides of protein X5 of SARS-CoV Urbani / Binding of serum 6 to linear peptides of protein N of SARS-CoV Urbani / Binding of serum 37 to linear peptides of protein N of SARS-CoV Urbani / Binding of serum 6 to linear peptide (PEPSCAN-ELISA) / Binding of serum 1a to looped/cyclic peptides of protein N of SARS-CoV Urbani / Binding of serum 1b to looped/cyclic peptides of protein N of SARS-CoV Urbani / Binding of serum 2 to looped/cyclic peptides of protein N of SARS-CoV Urbani / Binding of serum 6 to looped/cyclic peptides of protein N of SARS-CoV Urbani / Binding of serum 37 to looped/cyclic peptides of protein N of SARS-CoV Urbani / Binding of serum 62 to looped/cyclic peptides of protein N of SARS-CoV Urbani / Binding of serum London to looped/cyclic peptides of protein N of SARS-CoV Urbani / Binding of serum SARS-green to looped/cyclic peptides of protein N of SARS-CoV Urbani: unit not given here
[3] = test system: recombinant human anti-SARS-CoV antibody 03-018; assay type: binding; design: Binding of antibody 03-018 to linear peptides of the N protein of SARS-CoV Urbani / Binding of antibody 03-018 to looped/cyclic peptides of the N protein of SARS-CoV Urbani: unit not given here
[4] = test system: control sera (pooled serum of ten healthy LUMC hospital workers; commercial negative donor pooled serum from the Dutch bloodbank); assay type: binding, human; design: Binding of Control serum LUMC to linear peptides / Binding of Control serum Blood-bank to linear peptides / Binding of Control serum LUMC to looped peptides / Binding of Control Serum Blood-Bank to Looped peptides / Binding of Control serum LUMC to linear peptides of the protein M of SARS-CoV Urbani / Binding of Control serum Blood-bank to linear peptides of the protein M of SARS-CoV Urbani / Binding of Control serum LUMC to looped peptides of the protein M of SARS-CoV Urbani / Binding of Control Serum Blood-Bank to Looped peptides of the protein M of SARS-CoV Urbani: unit not given here

| Sequence | Binding of a rabbit serum to linear peptides of protein N of SARS-CoV Urbani (Rabbit serum linear peptides) [1] | Binding of a rabbit serum to looped/cyclic peptides of protein N of SARS-CoV Urbani (Rabbit serum looped peptides) [1] | Binding of serum 1a to looped/cyclic peptides of protein N of SARS-CoV Urbani [2] | Binding of serum 1b to looped/cyclic peptides of protein N of SARS-CoV Urbani [2] | Binding of serum 2 to looped/cyclic peptides of protein N of SARS-CoV Urbani [2] | Binding of serum 6 to looped/cyclic peptides of protein N of SARS-CoV Urbani [2] | Binding of serum 37 to looped/cyclic peptides of protein N of SARS-CoV Urbani [2] | Binding of serum 62 to looped/cyclic peptides of protein N of SARS-CoV Urbani [2] | Binding of serum London to looped/cyclic peptides of protein N of SARS-CoV Urbani [2] | Binding of serum SARS-green to looped/cyclic peptides of protein N of SARS-CoV Urbani [2] | Binding of serum SARS-yellow to looped/cyclic peptides of protein N of SARS-CoV Urbani [2] | Binding of antibody 03-018 to linear peptides of the N protein of SARS-CoV Urbani [3] | Binding of antibody 03-018 to looped/cyclic peptides of the N protein of SARS-CoV Urbani [3] | Binding of Control Serum Blood-Bank to Looped peptides [4] | Binding of Control serum Blood-bank to linear peptides [4] | Binding of Control serum LUMC to linear peptides [4] | Binding of Control serum LUMC to looped peptides [4] | also measured |
| --- | --- | --- | --- | --- | --- | --- | --- | --- | --- | --- | --- | --- | --- | --- | --- | --- | --- | --- |
| YAEGSRGGSQASSRS | 0.2 | 0.0 | 0.3 | 0.2 | 0.3 | 0.2 | 0.4 | 0.2 | 0.3 | 0.3 | 0.1 | 0.1 | 0.2 | 0.4 | 0.9 | 0.7 | 0.6 | Binding of serum 1a to linear peptide (PEPSCAN-ELISA) [2]: 0.3; Binding of serum 1b to linear peptide (PEPSCAN-ELISA) [2]: 0.1; Binding of serum 2 to linear peptide (PEPSCAN-ELISA) [2]: 0.3; Binding of serum 6 to linear peptide (PEPSCAN-ELISA) [2]: 0.4; Binding of serum 37 to linear peptide (PEPSCAN-ELISA) [2]: 0.7; Binding of serum 62 to linear peptide (PEPSCAN-ELISA) [2]: 0.7; Binding of serum London to linear peptide (PEPSCAN-ELISA) [2]: 0.5; Binding of serum SARS-green to linear peptide (PEPSCAN-ELISA) [2]: 0.6; Binding of serum SARS-yellow to linear peptide (PEPSCAN-ELISA) [2]: 0.6 |
| YFYYLGTGPEASLPY | 0.1 | 0.6 | 0.4 | 0.3 | 0.5 | 0.3 | 0.9 | 0.7 | 0.4 | 0.4 | 0.6 | 0.1 | 0.2 | 0.7 | 0.7 | 0.6 | 0.8 | Binding of serum 1a to linear peptides of protein N of SARS-CoV Urbani [2]: 0.3; Binding of serum 1b to linear peptides of protein N of SARS-CoV Urbani [2]: 0.1; Binding of serum 2 to linear peptides of protein N of SARS-CoV Urbani [2]: 0.3; Binding of serum 6 to linear peptides of protein N of SARS-CoV Urbani [2]: 0.2; Binding of serum 37 to linear peptides of protein N of SARS-CoV Urbani [2]: 0.7; Binding of serum 62 to linear peptides of protein N of SARS-CoV Urbani [2]: 0.8; Binding of serum London to linear peptides of protein N of SARS-CoV Urbani [2]: 0.4; Binding of serum SARS-green to linear peptides of protein N of SARS-CoV Urbani [2]: 0.0; Binding of serum SARS-yellow to linear peptides of protein N of SARS-CoV Urbani [2]: 0.7 |
